Assay results: US11919867B1, “5-(4,5-bis(4-bromophenyl)-2-(4-methoxyphenyl)-1H-imidazol-1-yl)pentanoic acid as an antimicrobial compound” (KING FAISAL UNIVERSITY, priority 2023, dated 2024)

How the values were obtained:
Type in all cases: cell-based
[1] = system: Bacillus cereus; assay: Agar plate disc-diffusion, antibacterial inhibition zone; conditions: nutrient agar, 37° C., 48 hours, DMSO control zone subtracted
Method: (§1) The agar plate disc-diffusion method was applied. […] The discs were then placed onto the surface of agar plates (nutrient agar for bacteria and Sabouraud's dextrose agar for fungi) seeded with the test organism. Each plate contained 15 mL of the agar medium, previously seeded with 0.2 mL of the broth culture of each organism pregrown for 18 hours. The plates were incubated at 37° C. for 48 hours, and 72 hours for fungi. The inhibition zones was measured in mm. Discs impregnated with DMSO were used as a control, and its inhibition zone was subtracted from the tested compound actual inhibition zone.

[2] = system: Staphylococcus aureus; assay: as above; conditions: nutrient agar, 37° C., 48 hours, DMSO control zone subtracted
Method: as §1

[3] = system: Escherichia coli; assay: as above; conditions: nutrient agar, 37° C., 48 hours, DMSO control zone subtracted
Method: as §1

[4] = system: Pseudomonas aeruginosa; assay: as above; conditions: nutrient agar, 37° C., 48 hours, DMSO control zone subtracted
Method: as §1

[5] = system: Aspergillus flavus; assay: Agar plate disc-diffusion, antifungal inhibition zone; conditions: Sabouraud's dextrose agar, 72 hours, DMSO control zone subtracted
Method: as §1

[6] = system: Chrysosporium keratinophilum; assay: as above; conditions: Sabouraud's dextrose agar, 72 hours, DMSO control zone subtracted
Method: as §1

[7] = A = concentration of comp. = 10,000 μL
[8] = B = concentration of comp. = 30,000 μL
[9] = C = concentration of comp. = 50,000 μL

COc1ccc(-c2nc(-c3ccc(Br)cc3)c(-c3ccc(Br)cc3)n2CCCCC(=O)O)cc1 [V, 5-(4,5-bis(4-bromophenyl)-2-(4-methoxyphenyl)-1H-imidazol-1-yl)pentanoic acid]
inhibition zone, Bacillus Cereus, A [1, 7]: 28 mm
inhibition zone, Bacillus Cereus, B [1, 8]: 29 mm
inhibition zone, Bacillus Cereus, C [1, 9]: 39 mm
inhibition zone, Staphylococcus aureus, A [2, 7]: 15 mm
inhibition zone, Staphylococcus aureus, B [2, 8]: 22 mm
inhibition zone, Staphylococcus aureus, C [2, 9]: 31 mm
inhibition zone, Escherichia coli, A [3, 7]: 30 mm
inhibition zone, Escherichia coli, B [3, 8]: 40 mm
inhibition zone, Escherichia coli, C [3, 9]: 55 mm
inhibition zone, Pseudomonas aeruginosa, A [4, 7]: 26 mm
inhibition zone, Pseudomonas aeruginosa, B [4, 8]: 29 mm
inhibition zone, Pseudomonas aeruginosa, C [4, 9]: 40 mm
inhibition zone, Aspergillus flavus, A [5, 7]: 22 mm
inhibition zone, Aspergillus flavus, B [5, 8]: 25 mm
inhibition zone, Aspergillus flavus, C [5, 9]: 33 mm
inhibition zone, Chrysosporium keratinophilum, A [6, 7]: 26 mm
inhibition zone, Chrysosporium keratinophilum, B [6, 8]: 27 mm
inhibition zone, Chrysosporium keratinophilum, C [6, 9]: 45 mm
